Reference: patent US12522594B2, “2-heteroaryl-3-oxo-2,3-dihydropyridazine-4-carboxamides for the treatment of cancer” (Deutsches Krebsforschungszentrum, priority 2017, dated 2026)
Several values for one entry are separate records, joined by “and”; a condition that tells them apart may be missing. Equal entries are not always repeated.

Legend:
Format in all cases: cell-based
[1] = biological target: T1, AHR (Homo sapiens, UniProt P35869); assay: In vitro assay 1: antagonism in human cell line (transactivation assay, U87 cells prestimulated with kynurenic acid, DRE firefly luciferase reporter); parameters: host or cells: U87 glioblastoma cells, stably transfected with DRE firefly luciferase and renilla reporter constructs; conditions: 150 uM kynurenic acid, 20 hours, read-out: Assay 1: AHR-luc Hum Antagonism IC50
T1 sequence (P35869 11-848): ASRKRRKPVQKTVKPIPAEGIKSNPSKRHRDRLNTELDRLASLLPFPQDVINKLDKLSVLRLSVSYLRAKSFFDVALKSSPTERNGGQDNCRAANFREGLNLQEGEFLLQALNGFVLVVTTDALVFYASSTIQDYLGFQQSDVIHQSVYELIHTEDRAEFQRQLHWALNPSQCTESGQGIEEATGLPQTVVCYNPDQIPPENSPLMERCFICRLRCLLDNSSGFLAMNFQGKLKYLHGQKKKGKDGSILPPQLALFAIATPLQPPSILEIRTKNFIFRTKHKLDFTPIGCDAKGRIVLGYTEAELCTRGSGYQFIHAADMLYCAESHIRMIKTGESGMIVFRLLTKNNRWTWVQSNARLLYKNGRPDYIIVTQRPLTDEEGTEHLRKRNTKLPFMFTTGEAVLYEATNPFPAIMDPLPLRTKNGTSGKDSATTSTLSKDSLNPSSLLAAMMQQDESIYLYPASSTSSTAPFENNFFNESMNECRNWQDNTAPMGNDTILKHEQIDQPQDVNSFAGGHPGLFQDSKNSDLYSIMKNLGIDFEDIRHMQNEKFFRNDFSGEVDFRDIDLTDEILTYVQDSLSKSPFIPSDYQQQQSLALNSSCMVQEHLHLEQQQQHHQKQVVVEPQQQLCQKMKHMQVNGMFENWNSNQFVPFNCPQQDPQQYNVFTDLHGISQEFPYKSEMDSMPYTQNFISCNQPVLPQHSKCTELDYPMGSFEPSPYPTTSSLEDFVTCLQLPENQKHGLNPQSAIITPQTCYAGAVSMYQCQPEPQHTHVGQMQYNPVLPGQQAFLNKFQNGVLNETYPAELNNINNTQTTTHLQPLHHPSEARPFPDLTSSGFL
Procedure, shortened: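 U87 glioblastoma cells with endogenous AHR, stably carrying a DRE-driven firefly luciferase reporter and a constitutive renilla reporter. Cells prestimulated with the AHR agonist kynurenic acid before compound addition; data normalized to positive and negative controls.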

[2] = biological target: T1, AHR; assay: In vitro assay 2: agonism in human cell line (transactivation assay, U87 cells, DRE firefly luciferase reporter); parameters: host or cells: U87 glioblastoma cells, stably transfected with DRE firefly luciferase and renilla reporter constructs; conditions: no kynurenic acid, 20 hours, read-out: Assay 2: AHR-luc Hum Agonism IC50
Procedure, shortened: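 U87 glioblastoma cells with endogenous AHR, stably carrying DRE-driven firefly luciferase and constitutive renilla reporters. 300 uM kynurenic acid served as positive activation control; data normalized to positive and negative controls.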

[3] = test system: human monocytes; assay: In vitro assay 4: rescue of TNFα production from human primary monocytes (LPS + KA); conditions: one value per donor; for Individual Donors Conc of highest rescue: concentration (of 1, 0.3, 0.1 uM tested) at which highest TNFα rescue was observed; for Individual Donors % rescue TNFα normalised to ref cmpd: human monocytes, 10 ng/mL LPS + 200 uM KA, 18 hours, highest percent rescue relative to highest rescue with GNF-351
Procedure: In Vitro Assay 4: Rescue of TNFα Production from Human Primary Monocytes
The ability of the substances to enhance immune cell activity was determined. The substances were tested for their capacity to reverse KA-induced inhibition of TNFα production by LPS-stimulated human monocytes. Human monocytes were purified by negative selection from donor PBMCs using Miltenyi beads and seeded at 2×10^5 cells/well in complete growth medium (RPMI 1640, 10% FCS). Monocytes were incubated with 10 ng/mL LPS (O127:B8, #L4516, Sigma) and 200 uM KA (#3375, Sigma) and substances were added at concentrations of 1 uM, 0.3 uM and 0.1 uM and cultured for 18 hours. LPS alone served as the positive control. TNFα production in the supernatant was measured by Meso Scale Discovery immunoassay and the ability of the substances to rescue TNFα production was calculated as a percentage of LPS stimulation and KA-induced inhibition and normalized to the donor-specific response with the reference AHR antagonist compound GNF-351 (Smith et al., J Pharmacol Exp Ther, 2011, 338(1):318-27).

[4] = biological target: T1, AHR; assay: In vitro assay 3: AHR-regulated CYP1A1 expression in human cell line (U937, qPCR, KA stimulation); conditions: U937 cells, 200 uM KA, 6 hours, CYP1A1 expression by qPCR; read-out: Assay 3: Hum CYP1A1 Antagonism IC50
Procedure, shortened: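 U937 human monocytic cells were stimulated with 200 uM KA for 6 h, with or without compound at eight concentrations from 1 nM to 3 uM, in duplicate. CYP1A1 mRNA was quantified by Taqman qPCR as fold expression normalised to HPRT. Unstimulated cells served as negative control.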

Structure (SMILES) | IC50 [1] | IC50 [2] | IC50 [4] | Individual Donors Conc of highest rescue [3] | Individual Donors % rescue TNFα normalised to ref cmpd [3]
O=C(NCC(O)C(F)(F)F)c1cc(-c2ccc(Cl)cc2)nn(-c2cccnc2)c1=O (racemic) [Example 78, 6-(4-Chlorophenyl)-3-oxo-2-(pyridin-3-yl)-N-[(2RS)-3,3,3-trifluoro-2-hydroxypropyl]-2,3-dihydropyridazine-4-carboxamide] | 6.68 nM | > 20000 nM | 4.81 nM |  | 
O=C(N[C@H]1COC[C@H]1O)c1cc(-c2ccc(OC(F)(F)F)cc2)nn(-c2cccnc2)c1=O (single isomer, unassigned; enantiomer 2) [Example 159, N-[(cis)-4-Hydroxytetrahydrofuran-3-yl]-3-oxo-2-(pyridin-3-yl)-6-[4-(trifluoromethoxy)phenyl]-2,3-dihydropyridazine-4-carboxamide, Enantiomer 2] | 57 nM | > 20000 nM | 97.9 nM |  | 
O=C(N[C@H]1COC[C@@H]1O)c1cc(-c2ccc(OC(F)(F)F)cc2)nn(-c2cccnc2)c1=O (single isomer, unassigned; enantiomer 2) [Example 162, N-[(trans)-4-Hydroxytetrahydrofuran-3-yl]-3-oxo-2-(pyridin-3-yl)-6-[4-(trifluoromethoxy)phenyl]-2,3-dihydropyridazine-4-carboxamide, Enantiomer 2] | 27.3 nM | > 20000 nM | 37.3 nM |  | 
C[C@@H](CO)NC(=O)c1cc(-c2ccc(Cl)cc2)nn(-c2ccc(F)s2)c1=O [Example 220, 6-(4-Chlorophenyl)-2-(5-fluoro-2-thienyl)-N-[(2S)-1-hydroxypropan-2-yl]-3-oxo-2,3-dihydropyridazine-4-carboxamide] | 3.36 nM | > 20000 nM | 1.96 nM |  | 
Cn1cc(-n2nc(-c3ccc(Cl)cc3)cc(C(=O)N[C@@H]3COC[C@@H]3O)c2=O)cn1 (single isomer, unassigned; enantiomer 1) [Example 44, 6-(4-Chlorophenyl)-N-[(cis)-4-hydroxytetrahydrofuran-3-yl]-2-(1-methyl-1H-pyrazol-4-yl)-3-oxo-2,3-dihydropyridazine-4-carboxamide, Enantiomer 1] | 11.6 nM | > 20000 nM | 9.43 nM |  | 
O=C(NC[C@H](O)CO)c1cc(-c2ccc(Cl)cc2)nn(-c2cccnc2)c1=O [Example 72, (−)-6-(4-Chlorophenyl)-N-[(2S)-2,3-dihydroxypropyl]-3-oxo-2-(pyridin-3-yl)-2,3-dihydropyridazine-4-carboxamide] | 182 nM | > 20000 nM | 495 nM |  | 
O=C(NC[C@@H](O)CO)c1cc(-c2ccc(Cl)cc2)nn(-c2cccnc2)c1=O [Example 73, (+)-6-(4-Chlorophenyl)-N-[(2R)-2,3-dihydroxypropyl]-3-oxo-2-(pyridin-3-yl)-2,3-dihydropyridazine-4-carboxamide] | 283 nM | > 20000 nM | 355 nM |  | 
O=C(N[C@H](CO)C(F)(F)F)c1cc(-c2ccc(Cl)cc2)nn(-c2cccnc2)c1=O [Example 96, (+)-6-(4-Chlorophenyl)-3-oxo-2-(pyridin-3-yl)-N-[(2R)-1,1,1-trifluoro-3-hydroxypropan-2-yl]-2,3-dihydropyridazine-4-carboxamide] | 3.67 nM | > 20000 nM | 3.77 nM |  | 

More lines, main results first:

IC50 [1] | IC50 [2] | IC50 [4] | Structure (SMILES) | Individual Donors Conc of highest rescue [3] | Individual Donors % rescue TNFα normalised to ref cmpd [3]
87.5 nM | > 20000 nM |  | COCC(O)CNC(=O)c1cc(-c2ccc(Cl)cc2)nn(-c2cnn(C)c2)c1=O (centres unmarked) [Example 24, 6-(4-Chlorophenyl)-N-(2-hydroxy-3-methoxypropyl)-2-(1-methyl-1H-pyrazol-4-yl)-3-oxo-2,3-dihydropyridazine-4-carboxamide] | 0.3 µM and 1 µM | 84% and 59%
131 nM | > 20000 nM |  | CC(C)(O)C(NC(=O)c1cc(-c2ccc(Cl)cc2)nn(-c2cncnc2)c1=O)C(F)(F)F (single isomer, unassigned) [Example 186, 6-(4-Chlorophenyl)-3-oxo-2-(pyrimidin-5-yl)-N-(1,1,1-trifluoro-3-hydroxy-3-methylbutan-2-yl)-2,3-dihydropyridazine-4-carboxamide] | 0.1 µM and 0.3 µM | 65% and 108%
 | > 20000 nM |  | Cn1cc(-n2nc(-c3ccc(C(F)(F)F)cc3)cc(C(=O)N[C@H](CO)C(F)(F)F)c2=O)cn1 [Example 36, 2-(1-Methyl-1H-pyrazol-4-yl)-3-oxo-N-[(2R)-1,1,1-trifluoro-3-hydroxypropan-2-yl]-6-[4-(trifluoromethyl)phenyl]-2,3-dihydropyridazine-4-carboxamide] | 1 µM | 74% and 65%
29.5 nM | > 20000 nM | 19.1 nM | Cn1cc(-n2nc(-c3ccc(C(F)F)cc3)cc(C(=O)NCC(C)(C)O)c2=O)cn1 [Example 62, 6-[4-(Difluoromethyl)phenyl]-N-(2-hydroxy-2-methylpropyl)-2-(1-methyl-1H-pyrazol-4-yl)-3-oxo-2,3-dihydropyridazine-4-carboxamide] |  | 
3.82 nM | > 20000 nM | 4.4 nM | O=C(N[C@H]1CCCC[C@H]1O)c1cc(-c2ccc(Cl)cc2)nn(-c2cccnc2)c1=O [Example 125, 6-(4-Chlorophenyl)-N-[(1S,2R)-2-hydroxycyclohexyl]-3-oxo-2-(pyridin-3-yl)-2,3-dihydropyridazine-4-carboxamide] |  | 
9.38 nM | > 20000 nM | 7.86 nM | O=C(NC[C@H](O)C(F)(F)F)c1cc(-c2ccc(Cl)cc2)nn(-c2cncnc2)c1=O [Example 237, 6-(4-Chlorophenyl)-3-oxo-2-(pyrimidin-5-yl)-N-[(2S)-3,3,3-trifluoro-2-hydroxypropyl]-2,3-dihydropyridazine-4-carboxamide] |  | 
26.5 nM | > 20000 nM | 122 nM | Cc1ccc(-c2cc(C(=O)NCC(O)C(F)F)c(=O)n(-c3cnn(C)c3)n2)cc1 (single isomer, unassigned; enantiomer 2) [Example 15, N-(3,3-Difluoro-2-hydroxypropyl)-6-(4-methylphenyl)-2-(1-methyl-1H-pyrazol-4-yl)-3-oxo-2,3-dihydropyridazine-4-carboxamide, Enantiomer 2] |  | 
6.5 nM | > 20000 nM | 7.55 nM | Cn1cc(-n2nc(-c3ccc(Cl)cc3)cc(C(=O)N[C@H]3CCC[C@@H]3O)c2=O)cn1 [Example 49, 6-(4-Chlorophenyl)-N-[(1S,2S)-2-hydroxycyclopentyl]-2-(1-methyl-1H-pyrazol-4-yl)-3-oxo-2,3-dihydropyridazine-4-carboxamide] |  | 
2.78 nM | > 20000 nM | 4.01 nM | Cn1cc(-n2nc(-c3ccc(C(F)(F)F)cc3)cc(C(=O)N[C@@H]3COC[C@@H]3O)c2=O)cn1 (single isomer, unassigned) [Example 218, (+)-N-cis-4- Hydroxytetrahyd rofuran-3-yl-2-(1-methyl-1H-pyrazol-4-yl)-3-oxo-6-[4-(trifluoromethyl)phenyl]-2,3-dihydropyridazine-4-carboxamide] |  | 
